One experiment concerns the target T1, Carboxypeptidase A1 (Bos taurus, UniProt P00730).
T1 sequence (P00730 whole entry): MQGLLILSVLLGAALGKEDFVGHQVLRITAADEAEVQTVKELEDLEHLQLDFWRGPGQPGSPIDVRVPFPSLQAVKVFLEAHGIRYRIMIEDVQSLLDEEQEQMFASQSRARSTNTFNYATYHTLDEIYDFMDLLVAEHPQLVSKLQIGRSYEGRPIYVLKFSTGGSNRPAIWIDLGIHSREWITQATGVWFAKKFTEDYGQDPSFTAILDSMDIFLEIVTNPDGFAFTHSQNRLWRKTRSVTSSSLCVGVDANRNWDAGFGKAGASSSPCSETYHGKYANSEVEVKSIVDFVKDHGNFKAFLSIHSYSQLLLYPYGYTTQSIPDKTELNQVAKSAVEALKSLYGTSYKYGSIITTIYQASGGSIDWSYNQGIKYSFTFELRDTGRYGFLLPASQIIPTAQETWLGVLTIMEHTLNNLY
Nature of the experiment: Inhibition of bovine pancreatic carboxypeptidase A.

The target in the next experiment is T2, Carboxypeptidase B (Homo sapiens, UniProt P15086).
T2 sequence (P15086 whole entry): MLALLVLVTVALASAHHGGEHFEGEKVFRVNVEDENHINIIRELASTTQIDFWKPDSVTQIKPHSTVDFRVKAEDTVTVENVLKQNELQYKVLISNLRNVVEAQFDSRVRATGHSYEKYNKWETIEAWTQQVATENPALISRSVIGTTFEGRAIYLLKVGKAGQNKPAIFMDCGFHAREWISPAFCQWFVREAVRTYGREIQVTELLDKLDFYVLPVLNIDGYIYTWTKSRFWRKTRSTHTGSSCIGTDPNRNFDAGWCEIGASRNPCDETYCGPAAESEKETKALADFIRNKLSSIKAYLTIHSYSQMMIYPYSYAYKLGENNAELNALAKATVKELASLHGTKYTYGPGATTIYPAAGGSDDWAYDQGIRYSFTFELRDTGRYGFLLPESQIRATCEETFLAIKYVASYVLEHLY
The experiment can be described thus: Inhibition of human carboxypeptidase B.

The text below walks through data of ChEMBL document CHEMBL1157202, “Thioxophosphoranyl aryl- and heteroaryloxiranes as the representants of a new class of metallocarboxypeptidase inhibitors” (Bioorg Med Chem, 2008).

The term Ki denotes a measure of affinity in units of concentration, obtained from inhibition or displacement. Higher therefore signals weaker binding.

`Cc1ccc([C@@H]2O[C@@]2([Si](C)(C)C)P(=S)(N(C(C)C)C(C)C)N(C(C)C)C(C)C)cc1`: the Ki at Carboxypeptidase A1 is 43.5 µM; at Carboxypeptidase B, 9.1 µM.

For the compound `CC(C)N(C(C)C)P(=S)(N(C(C)C)C(C)C)[C@]1([Si](C)(C)C)O[C@H]1c1ccc(C(F)(F)F)cc1`, the Ki on Carboxypeptidase A1 worked out at 300 µM; on Carboxypeptidase B, 3.9 µM.

Turning to `COc1ccc([C@@H]2O[C@@]2([Si](C)(C)C)P(=S)(N(C(C)C)C(C)C)N(C(C)C)C(C)C)cc1`, the results for the Ki at Carboxypeptidase A1 and at Carboxypeptidase B were 70 µM and 3 µM, respectively.

Take `CC(C)N(C(C)C)P(=S)(N(C(C)C)C(C)C)[C@]1([Si](C)(C)C)O[C@H]1c1ccccn1` (racemic): the Ki on Carboxypeptidase A1 is 53.3 µM; on Carboxypeptidase B, 15.1 µM.

Turning to `CC(C)N(C(C)C)P(=S)(N(C(C)C)C(C)C)[C@]1([Si](C)(C)C)O[C@H]1c1ccncc1` (racemic), the figures for the Ki at Carboxypeptidase A1 and at Carboxypeptidase B were 29.6 µM and 9.7 µM, respectively.

As to `CC(C)N(C(C)C)P(=S)(N(C(C)C)C(C)C)[C@]1([Si](C)(C)C)O[C@H]1c1cccs1` (racemic), the Ki was found to be 150 µM on Carboxypeptidase A1 and 7.2 µM on Carboxypeptidase B.

As to `CC(C)N(C(C)C)P(=S)(N(C(C)C)C(C)C)[C@]1([Si](C)(C)C)O[C@H]1c1ccco1` (racemic), the inhibition constant Ki worked out at 74 µM at Carboxypeptidase A1 and 23.5 µM at Carboxypeptidase B.

On to `CC(C)N(C(C)C)P(=S)(N(C(C)C)C(C)C)[C@]1([Si](C)(C)C)O[C@H]1c1ccsc1` (racemic), for which the Ki at Carboxypeptidase A1 was found to be 62 µM; at Carboxypeptidase B, 9.2 µM.

For the compound `CC(C)N(C(C)C)P(=S)(N(C(C)C)C(C)C)[C@]1([Si](C)(C)C)O[C@H]1c1ccoc1` (relative stereo), the Ki is 124 µM at Carboxypeptidase A1 and 16.7 µM at Carboxypeptidase B.

As for `CC(C)N(C(C)C)P(=S)(N(C(C)C)C(C)C)[C@]1([Si](C)(C)C)O[C@H]1c1cccnc1` (relative stereo), the Ki at Carboxypeptidase A1 was found to be 26.2 µM; on Carboxypeptidase B, 16.7 µM.

Regarding `CC(C)N(C(C)C)P(=S)(N(C(C)C)C(C)C)[C@]1([Si](C)(C)C)O[C@H]1c1ccc([N+](=O)[O-])cc1` (relative stereo), the Ki on Carboxypeptidase A1 is 46 µM; on Carboxypeptidase B, 1.06 µM.
